This passage reports IC50 results from publication PMC6437461, “Histone deacetylase inhibitory and cytotoxic activities of the constituents from the roots of three species of Ferula” (Iranian Journal of Basic Medical Sciences, 2019).

Where two headings read alike, the source gives them in different places.

Data set [1] relates to HeLa cells. Briefly: AlamarBlue cytotoxicity assay, HeLa. It is filed as cell-based. As to conditions: Homo sapiens, 48 hr treatment. As to the method: (§1) Cervical (HeLa), ovarian (A2780), and lung (A549) cancer cells, obtained from Biotechnology Laboratory stocks, Biotechnology Research Center (Mashhad, Iran) and colon (HCT116) obtained from National Cell Bank of Iran (NCBI), Pasteur Institute of Iran, Tehran (Iran).
(§2) In vitro cytotoxicity tests were performed using a nonfluorescent substrate, AlamarBlue® (Paisely, UK) cell viability assay as described with some modifications (16). […] After counting, the cells were seeded in 96-well microplates (1 × 10^4 cells/100 µl in each well) and cultivated for 24 hr before addition of test compounds. Triplicate plates for three wells of each concentration were seeded. […] Thereafter, 10 μl of AlamarBlue® reagent was added and incubated for another 4 hr. Then, absorbance was measured at 600 nm using an ELISA microplate reader (Epoch; USA). IC50 values were calculated by nonlinear regression analysis using GraphPad prism (Version 6.0) software.
On the technique in general: Resazurin is reduced to fluorescent resorufin, in cell work by metabolically active cells.

Data set [2] has as its system HCT116 cells. Briefly: AlamarBlue cytotoxicity assay, HCT116. Type of data set: cell-based. The conditions noted are these: Homo sapiens, HCT-116, 48 hr treatment. The procedure:
as §1, §2

In data set [3] the test system is A2780 cells. Nature of the data set: AlamarBlue cytotoxicity assay, A2780. Type of data set: cell-based. The conditions noted are these: Homo sapiens, 48 hr treatment. As to the method: as §1, §2
Data set [4] deals with A549 cells. Nature of the data set: AlamarBlue cytotoxicity assay, A549. As to conditions: Homo sapiens, 48 hr treatment. It is filed as cell-based. The procedure: as §1, §2
The test system of data set [5] is pan-HDAC. Briefly: Whole-cell HDAC inhibition assay in HeLa cells. As to conditions: read-out: HDAC inhibition IC50 HeLa, 18 hr incubation, Boc-Lys(ε-Ac)-AMC substrate.
Protocol: (§3) Three wells defined as 100% initial activity and three wells defined as background and three wells for each concentration were seeded. […] The test compounds, were dissolved in dimethyl sulfoxide (final concentrations of DMSO per well was 0.1% V/V) and their concentrations adjusted to 70, 40, 20, 5, 1 μM through dilution with the growth medium. The first step of reaction was started by adding 10 µl of 3 mM Boc-Lys (ε-Ac)-AMC (Bachem, Switzerland) to each well to reach a final concentration of 0.3 mM. Then, cells were incubated with the Boc-Lys (ε-Ac)-AMC for 3 hr under cell culture conditions. […] The final volume of the solution (210 µl per well) were transferred to the black 96-well microplate with flat clear bottom. We calculated fluorescence intensity at an excitation of 360 nm and emission of 470 nm in a NOVO star microplate reader (BMGLabTech, Germany).
The subject of data set [6] is pan-HDAC. Briefly: Whole-cell HDAC inhibition assay in HCT116 cells. As to conditions: read-out: HDAC inhibition IC50 HCT116, HCT116, 18 hr incubation, Boc-Lys(ε-Ac)-AMC substrate.
Protocol: as §3
The subject of data set [7] is human cancer cell lines (HeLa, HCT116, A2780 and A549). Briefly: AlamarBlue cytotoxicity, summary over the four cancer cell lines. Type of data set: cell-based. As to conditions: collective range, read-out: Cytotoxic activity IC50 against cancer cells (range over cell lines and compounds). As to the method:
as §1, §2

For data set [8], the system named is pan-HDAC. Nature of the data set: Whole-cell pan-HDAC inhibition, summary over HeLa and HCT116. As to conditions: read-out: pan-HDAC inhibitory activity IC50 (range over HeLa and HCT116), collective range.
Protocol: as §3

Broadly, the IC50 is the concentration at which inhibition is half-maximal. Take `CC1=CC(=O)C2C(C)(C)C(=O)CC[C@@]2(C)[C@@H]1COc1ccc2ccc(=O)oc2c1` (some centres unmarked) [Conferdione (9), Conferdione]: the IC50 was 41.7 ± 11.1 µM in data set [1]; 50.9 ± 5.19 µM in data set [2]; 38.8 ± 9.88 µM in data set [3]; 32.7 ± 7.96 µM in data set [4]; 17.4 ± 0.5 µM in data set [5]; more than 70 µM in data set [6].

Take `CC1=CCC2C(C)(C)C(=O)CC[C@@]2(C)[C@@H]1COc1ccc2ccc(=O)oc2c1` (some centres unmarked) [Conferone (6), Conferone]: the IC50 in data set [1] was 38.2 ± 7.8 µM; in data set [2] it was 31.8 ± 8.33 µM; in data set [3], 32.4 ± 9.83 µM; in data set [4], 39.2 ± 5.23 µM; in data set [7] it was less than 50 µM; in data set [5], 1.17 ± 0.06 µM. For the same compound, the IC50 is 1.06 ± 0.15 µM in data set [6] and 1.06 to 1.17 µM in data set [8].

As to `CC1=CC(OC2OC(CO)C(O)C(O)C2O)C2C(C)(C)C(=O)CC[C@@]2(C)[C@@H]1COc1ccc2ccc(=O)oc2c1` (some centres unmarked) [Conferoside (10), Conferoside], the IC50 is 40 ± 7.99 µM in data set [1]; 35.3 ± 6.98 µM in data set [2]; 36.4 ± 12.3 µM in data set [3]; 45.8 ± 6.39 µM in data set [4]; 11.6 to 49.4 µM in data set [7] (Homo sapiens); 35.27 ± 0.16 µM in data set [5]. Further, the IC50 in data set [6] was 9.94 ± 1.89 µM.

With `C=C1CCC(=O)C(C)(C)[C@H]1CC/C(C)=C/COc1ccc2ccc(=O)oc2c1` [Farnesiferone B (5), Farnesiferone B], the IC50 in data set [1] was 71.6 ± 6.4 µM; in data set [2] it was 50.1 ± 6.29 µM; in data set [3] it was 78.9 ± 6.74 µM; in data set [4], 72.5 ± 4.83 µM; in data set [5], more than 70 µM; in data set [6], 40.4 ± 1.09 µM.

In the case of `CC1=CC[C@@H]2C(C)(C)[C@H](O)CC[C@@]2(C)[C@@H]1COc1ccc2ccc(=O)oc2c1` [Feselol (7), Feselol], the IC50 was 34.8 ± 7.94 µM in data set [1]; 28.4 ± 8.1 µM in data set [2]; 20.2 ± 9.68 µM in data set [3]; 25.5 ± 5.86 µM in data set [4]; 11.6 to 49.4 µM in data set [7] (Homo sapiens); 10.7 ± 1.31 µM in data set [5]. In addition, the IC50 in data set [6] was determined as 5.29 ± 0.22 µM.

In the case of `CCC(C)SS/C=C\COC(C)=O` (centres unmarked) [Latisulfide A (13), Latisulfide A], the IC50 is 77.6 ± 3.43 µM in data set [1]; more than 100 µM in data set [2]; more than 100 µM in data set [3]; more than 100 µM in data set [4]; more than 70 µM in data set [5]; more than 70 µM in data set [6].

Consider `C=C(C)C(=O)OC/C=C\SSC(C)CC` (centres unmarked) [Latisulfide B (14), Latisulfide B], for which the IC50 is more than 100 µM in data set [1]; more than 100 µM in data set [2]; more than 100 µM in data set [3]; more than 100 µM in data set [4]; more than 70 µM in data set [5]; more than 70 µM in data set [6].

For the compound `C/C=C(/C)C(=O)OC/C=C\SSC(C)CC` (centres unmarked) [Latisulfide C (15), Latisulfide C], the IC50 in data set [1] is 18.7 ± 8.5 µM; in data set [2] it was 47.2 ± 8.18 µM; in data set [3] it was 49.4 ± 6.2 µM; in data set [4], 47.9 ± 4.73 µM; in data set [7] (Homo sapiens), 11.6 to 49.4 µM; in data set [5], 10.6 ± 0.77 µM. For the same compound, in data set [6], the IC50 came to 25.91 ± 0.14 µM.

Turning to `CCC(C)SS/C=C\CO` (centres unmarked) [Latisulfide D (16), Latisulfide D], the IC50 in data set [1] is more than 100 µM; in data set [2] it was more than 100 µM; in data set [3] it was more than 100 µM; in data set [4], more than 100 µM; in data set [5], more than 70 µM; in data set [6] it was more than 70 µM.

As to `CCC(C)SS/C=C\COC(=O)/C=C/c1ccc(O)c(OC)c1` (centres unmarked) [Latisulfide E (17), Latisulfide E], the IC50 in data set [1] was 30.6 ± 14.9 µM; in data set [2], 57.1 ± 5.21 µM; in data set [3], 71.3 ± 6.52 µM; in data set [4], 69.7 ± 7.71 µM; in data set [5], 5.02 ± 0.29 µM; in data set [6], 19.9 ± 0.69 µM.

Regarding `CC1=CC(=O)[C@@H]2C(C)(C)[C@H](O)CC[C@@]2(C)[C@@H]1COc1ccc2ccc(=O)oc2c1` [Ligupersin A (8), Ligupersin A], the IC50 in data set [1] was 22.9 ± 6.82 µM; in data set [2], 68.5 ± 7.41 µM; in data set [3], 39.5 ± 10.8 µM; in data set [4] it was 33.5 ± 9.58 µM; in data set [5], 2.86 ± 1.4 µM; in data set [6] it was 26.44 ± 0.03 µM.

`CCC(C)SS/C=C/COC(=O)CC(C)(C)OC(C)=O` (centres unmarked) [Persicasulfide A (2), Persicasulfide A]: the IC50 is 11.8 ± 11.6 µM in data set [1]; 11.6 ± 10.5 µM in data set [2]; 19.4 ± 7.29 µM in data set [3]; 15.3 ± 6.77 µM in data set [4]; 11.6 to 49.4 µM in data set [7] (Homo sapiens); 5.47 ± 0.89 µM in data set [5]. The IC50 in data set [6] came out at 4.41 ± 0.24 µM.

For `CCC(C)SS/C=C/COC(=O)CC(C)(C)O` (centres unmarked) [Persicasulfide C (3), Persicasulfide C], the IC50 in data set [1] was 64.8 ± 1.01 µM; in data set [2] it was more than 100 µM; in data set [3], more than 100 µM; in data set [4], more than 100 µM; in data set [5], more than 70 µM; in data set [6], more than 70 µM.

In the case of `COc1cc(C(=O)OC2C3(C)CCC(C3)C2(C)C)ccc1O` (centres unmarked) [Stylosin (19), Stylosin], the IC50 in data set [1] is 54.8 ± 7.53 µM; in data set [2], 42.1 ± 6.1 µM; in data set [3], 25.5 ± 5.96 µM; in data set [5] it was more than 70 µM; in data set [6], 14.93 ± 0.08 µM.

As for `CC(C)=CCC/C(C)=C/CC/C(C)=C/COc1ccc2ccc(=O)oc2c1` [Umbelliprenin (4), Umbelliprenin], the IC50 was more than 100 µM in data set [1]; more than 100 µM in data set [2]; more than 100 µM in data set [3]; more than 100 µM in data set [4]; more than 70 µM in data set [5]; more than 70 µM in data set [6].
